In patent US20120214862A1, “MODULATION OF FACTOR 7 EXPRESSION” (ISIS Pharmaceuticals, Inc., priority 2009, published 2012):
In the oligonucleotide strings, read from the 5' end, every base follows the letter of its sugar. An asterisk marks phosphorothioate; unmarked linkages are phosphodiester. Other units and linkages are bracketed, terminal groups are in braces. A string of capitals states the bases alone. e = 2'-O-(2-methoxyethyl) (MOE); [5mC] = 5-methylcytosine; d = 2'-deoxy (DNA)

Test system: human Factor 7 mRNA
Assay: Antisense inhibition of human Factor 7 mRNA in HepB3 cells, lipofectin, 50 nM, real-time RT-PCR
Format: cell-based
Conditions: HepB3 cells
In short: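 Readout is percent reduction of Factor 7 message compared with untreated cells, after correction for total RNA content quantified by RIBOGREEN®. Cultures were seeded at 4,000 cells per well and treated for about 24 hours before RNA extraction.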

[1] = lipofectin, 50 nM antisense oligonucleotide, approximately 24 hours, primer probe set RTS 2927, relative to untreated control
[2] = gapmers targeted to nucleobases 11830 to 11869 of SEQ ID NO: 1 (Table 9)

Substance | % Inhibition of human Factor 7 mRNA levels [1] [%] | also measured
416529 (antisense eG*eG*eG*e[5mC]*eT*dG*dA*dG*dA*d[5mC]*dT*dG*dA*dG*dG*eT*e[5mC]*eA*eG*e[5mC]) [compound 416529] | 18 | 
416530 (antisense eA*eG*eG*eG*eT*dA*dG*d[5mC]*d[5mC]*dT*dT*dT*dG*d[5mC]*d[5mC]*eT*eT*eG*eG*e[5mC]) [compound 416530] | 35 | 
416531 (antisense eA*eG*eA*eT*eG*dA*d[5mC]*d[5mC]*dA*dG*d[5mC]*dA*dG*dG*dA*eA*eG*e[5mC]*e[5mC]*eT) [compound 416531] | 19 | 
416532 (antisense eG*eG*eA*e[5mC]*e[5mC]*d[5mC]*dA*dG*dA*dT*dG*dA*d[5mC]*d[5mC]*dA*eG*e[5mC]*eA*eG*eG) [compound 416532] | 12 | 
416533 (antisense eG*e[5mC]*eA*eT*eT*d[5mC]*dT*dG*dG*dA*d[5mC]*d[5mC]*d[5mC]*dA*dG*eA*eT*eG*eA*e[5mC]) [compound 416533] | 41 | 
416534 (antisense eA*eT*eG*e[5mC]*eA*d[5mC]*dA*d[5mC]*d[5mC]*dA*dG*dG*dG*d[5mC]*dT*eG*e[5mC]*eT*eG*eG) [compound 416534] | 32 | 
416535 (antisense eG*e[5mC]*eA*eG*eG*dA*dT*dG*d[5mC]*dA*d[5mC]*dA*d[5mC]*d[5mC]*dA*eG*eG*eG*e[5mC]*eT) [compound 416535] | 47 | 
416536 (antisense e[5mC]*eG*eG*eG*eA*dA*dG*dG*d[5mC]*d[5mC]*dT*dG*d[5mC]*d[5mC]*d[5mC]*eT*eG*e[5mC]*eA*eG) [compound 416536] | 23 | 
416537 (antisense eT*eG*eA*e[5mC]*e[5mC]*dA*d[5mC]*dT*d[5mC]*dT*dT*d[5mC]*d[5mC]*dG*dA*eG*e[5mC]*eA*eG*e[5mC]) [compound 416537] | 55 | 
416538 (antisense e[5mC]*eG*eT*eG*eG*dA*d[5mC]*dT*dG*dA*dT*d[5mC]*d[5mC]*dA*dA*eA*eG*eG*eA*e[5mC]) [compound 416538] | 46 | 
416539 (antisense eG*eA*e[5mC]*eA*eG*dA*dG*d[5mC]*d[5mC]*dT*dG*dA*dG*d[5mC]*dT*eT*eG*eG*e[5mC]*eA) [compound 416539] | 53 | 
416540 (antisense eG*eG*eA*e[5mC]*eT*dG*dG*dT*dG*dT*d[5mC]*dA*dT*d[5mC]*dT*eG*eG*eG*eA*e[5mC]) [compound 416540] | 38 | 
416541 (antisense e[5mC]*e[5mC]*eA*e[5mC]*e[5mC]*d[5mC]*dT*dT*dG*dG*dT*dG*d[5mC]*d[5mC]*d[5mC]*eA*eG*eA*eT*e[5mC]) [compound 416541] | 53 | 
416542 (antisense e[5mC]*eA*eG*eG*eG*dT*dG*d[5mC]*d[5mC]*d[5mC]*dA*dT*d[5mC]*d[5mC]*dT*eA*eG*eT*e[5mC]*eA) [compound 416542] | 56 | 
416543 (antisense eT*e[5mC]*e[5mC]*eT*eG*d[5mC]*dG*dA*dG*dT*dG*dG*dG*dA*dG*eT*eT*eG*eG*eA) [compound 416543] | 0 | 
416544 (antisense eA*eT*e[5mC]*e[5mC]*e[5mC]*dA*dT*dT*dT*dT*d[5mC]*d[5mC]*d[5mC]*dA*dG*eG*eA*eG*e[5mC]*e[5mC]) [compound 416544] | 58 | 
416545 (antisense eA*eG*eA*eA*eA*d[5mC]*dA*dT*d[5mC]*d[5mC]*d[5mC]*dA*dT*dT*dT*eT*e[5mC]*e[5mC]*e[5mC]*eA) [compound 416545] | 8 | 
416546 (antisense e[5mC]*e[5mC]*eA*eG*eG*d[5mC]*dT*dG*dG*dT*dT*dT*dG*dG*dA*eG*eA*eA*eA*e[5mC]) [compound 416546] | 21 | 
416547 (antisense eA*eT*eG*eA*eA*dA*dT*dT*d[5mC]*dT*dA*d[5mC]*d[5mC]*dT*dA*eA*eA*eG*eA*eT) [compound 416547] | 0 | 
416548 (antisense eA*eG*eG*eT*eG*dA*dA*dT*dG*dA*dA*dA*dT*dT*d[5mC]*eT*eA*e[5mC]*e[5mC]*eT) [compound 416548] | 29 | 
416550 (antisense eT*eG*eG*e[5mC]*eT*dG*dG*d[5mC]*dT*dG*dA*dG*dG*dA*dG*eA*e[5mC]*eA*eA*eT) [compound 416550] | 55 | 
416551 (antisense e[5mC]*eA*eG*eA*eA*dA*d[5mC]*dA*d[5mC]*d[5mC]*d[5mC]*dA*dT*d[5mC]*d[5mC]*eT*e[5mC]*eT*eG*eA) [compound 416551] | 19 | 
416552 (antisense eT*e[5mC]*eT*eG*e[5mC]*dA*d[5mC]*dA*dG*dG*dG*dT*dA*dG*dA*e[5mC]*e[5mC]*e[5mC]*eT*e[5mC]) [compound 416552] | 46 | 

Substance | % Inhibition of human Factor 7 mRNA levels [1] [%] | also measured
416553 (antisense eG*eG*eT*eT*e[5mC]*dT*d[5mC]*dT*dG*d[5mC]*dA*d[5mC]*dA*dG*dG*eG*eT*eA*eG*eA) [compound 416553] | 56 | 
416554 (antisense eA*eA*eA*eG*eA*dT*d[5mC]*d[5mC]*d[5mC]*dA*d[5mC]*d[5mC]*dT*d[5mC]*dA*eA*eA*eG*eA*eG) [compound 416554] | 7 | 
416555 (antisense eA*eA*eA*eG*eA*dT*d[5mC]*dA*dG*dG*d[5mC]*dA*dA*dA*dG*eA*eT*e[5mC]*e[5mC]*e[5mC]) [compound 416555] | 6 | 
416556 (antisense eA*eT*eA*eG*e[5mC]*dT*dT*dT*dG*dA*dT*d[5mC]*d[5mC]*dA*dA*eT*eG*e[5mC]*eT*e[5mC]) [compound 416556] | 53 | 
416557 (antisense eT*e[5mC]*e[5mC]*e[5mC]*eA*dG*dG*d[5mC]*dA*dA*dA*dG*d[5mC]*dT*dG*e[5mC]*eT*e[5mC]*eA*eG) [compound 416557] | 56 | 
416558 (antisense eT*eG*eA*e[5mC]*eA*dG*d[5mC]*dA*d[5mC]*dG*dA*dA*dG*d[5mC]*d[5mC]*e[5mC]*eA*eG*eA*eG) [compound 416558] | 19 | 
416559 (antisense eG*e[5mC]*e[5mC]*eA*eT*dT*dT*d[5mC]*dT*dA*dG*dG*dT*d[5mC]*dT*eG*e[5mC]*eA*eG*eG) [compound 416559] | 25 | 
416560 (antisense eT*eA*eA*eA*eA*d[5mC]*dT*dT*dT*dA*dT*dT*dT*dA*d[5mC]*eA*eA*eG*eA*eG) [compound 416560] | 0 | 
416561 (antisense eG*eG*eT*eG*eT*dG*dT*dT*d[5mC]*d[5mC]*d[5mC]*dA*dT*dA*dA*eA*eA*e[5mC]*eT*eT) [compound 416561] | 16 | 
416562 (antisense eA*eA*eA*eG*e[5mC]*dA*dG*dA*dG*d[5mC]*d[5mC]*dA*dG*d[5mC]*dT*e[5mC]*eT*eG*eA*e[5mC]) [compound 416562] | 12 | 
416563 (antisense eG*e[5mC]*e[5mC]*eT*eG*d[5mC]*dA*dT*dT*dT*d[5mC]*d[5mC]*d[5mC]*dA*dT*eT*eG*eG*e[5mC]*eA) [compound 416563] | 0 | 
416564 (antisense eG*e[5mC]*e[5mC]*eA*e[5mC]*dT*d[5mC]*dA*d[5mC]*dA*dG*dA*dA*dA*dG*e[5mC]*eT*eG*eG*eA) [compound 416564] | 0 | 
416565 (antisense e[5mC]*eA*eG*eG*eA*dT*dG*d[5mC]*dT*d[5mC]*dA*dT*dG*dG*d[5mC]*eA*eG*eA*e[5mC]*eA) [compound 416565] | 0 | 
416566 (antisense eG*eT*eT*eT*eG*dT*dA*dT*dG*dG*dA*dG*dA*dG*dA*e[5mC]*e[5mC]*eA*eA*eT) [compound 416566] | 0 | 
416567 (antisense eT*eG*eG*eT*eG*dG*d[5mC]*dA*d[5mC]*d[5mC]*dA*dG*dA*dT*dG*eT*e[5mC]*eT*eG*eA) [compound 416567] | 2 | 
416568 (antisense e[5mC]*eA*eT*eT*eG*dT*dG*d[5mC]*d[5mC]*dT*dG*dG*d[5mC]*dA*d[5mC]*eA*e[5mC]*eA*eG*eG) [compound 416568] | 14 | 
416569 (antisense eG*e[5mC]*e[5mC]*eT*eG*dG*dT*dG*dT*dG*d[5mC]*dA*d[5mC]*dA*d[5mC]*eA*eT*eT*eG*eT) [compound 416569] | 12 | 
422085 (antisense eG*e[5mC]*eA*eT*eG*dG*dT*dG*dA*dT*dG*d[5mC]*dT*dT*d[5mC]*eT*eG*eA*eA*eT) [compound 422085] |  | % Inhibition of human Factor 7 mRNA levels (gapmers targeted to nucleobases 15188 to 15211 of SEQ ID NO: 1 (Table 13)): 70%
422088 (antisense eT*e[5mC]*eA*eG*eG*dG*d[5mC]*dT*dG*dG*dT*dT*dT*dT*dG*eG*eA*eG*eG*eA) [compound 422088] |  | % Inhibition of human Factor 7 mRNA levels [2]: 8%
422089 (antisense eG*eT*e[5mC]*eA*eG*dG*dG*d[5mC]*dT*dG*dG*dT*dT*dT*dT*eG*eG*eA*eG*eG) [compound 422089] |  | % Inhibition of human Factor 7 mRNA levels [2]: 22%
422090 (antisense eG*eG*eT*e[5mC]*eA*dG*dG*dG*d[5mC]*dT*dG*dG*dT*dT*dT*eT*eG*eG*eA*eG) [compound 422090] |  | % Inhibition of human Factor 7 mRNA levels [2]: 42%
422091 (antisense eT*eG*eG*eT*e[5mC]*dA*dG*dG*dG*d[5mC]*dT*dG*dG*dT*dT*eT*eT*eG*eG*eA) [compound 422091] |  | % Inhibition of human Factor 7 mRNA levels [2]: 42%
